Assay results published in patent US8518883B2, “Method of reducing deleterious effects of ischemia by administration of a thrombopoietin receptor ligand” (MCW Research Foundation, Inc., priority 2006, dated 2013).

Tested on: in vitro rat hearts
Assay: Isolated perfused (Langendorff) rat heart, 25 min global ischemia and 180 min reperfusion: hemodynamics, infarct size, recovery of LVDP
Conditions: for Effect on the cardioprotective effect of Tpo (infarct size, LVDP recovery): Glibenclamide 3 μM 15 min alone, then with Tpo 1.0 ng/ml 15 min prior to ischemia; for Effect on cardioprotection, drug alone: no Tpo
Procedure: The study was directed to determining whether Tpo (0.01-10.0 ng/ml) confers immediate cardioprotection in rat hearts and the contribution of potassium channels to the underlying mechanism. Hearts from normoxic 8 week old Sprague Dawley rats (n=8/group) were isolated and perfused in the Langendorff mode. Hemodynamic function was recorded under steady-state conditions prior to 25 minutes global no flow ischemia and 180 minutes reperfusion.
Isolated heart perfusion. Isolated rat hearts were perfused with bicarbonate buffer at constant pressure in a retrograde manner and instrumented as described in Baker, et al., Am. J. Physiol. Heart Circulat. Physiol. 278:1395-1400, 2000 potassium channel blockers were added to this perfusate as needed. A 3-way tap, located immediately above the site of cannulation, allowed the entire perfusate to be diverted away from the heart to produce global, no-flow ischemia. Reperfusion was achieved by repositioning of the tap to allow perfusate to be delivered to the heart. Left ventricular function was monitored continuously throughout each experiment as described in Baker, et al., supra, 2000. End-diastolic pressure was initially set to 3 mmHg for 2 minutes. The balloon was then progressively inflated with a microsyringe to set end-diastolic pressures to 8 mmHg for the left ventricle, with developed pressure and heart rate recorded during steady-state conditions. Coronary flow rate was measured throughout the experiment by timed collections of the coronary effluent from the right side of the heart into a graduated cylinder. Coronary flow rate was expressed as milliliters per minute per gram wet weight.
Resistance to myocardial ischemia. Hearts from adult rats were perfused with bicarbonate buffer, and biventricular function was monitored continuously throughout each experiment as described in Baker, et al., supra, 2000. For concentration response studies, hearts were then perfused with Tpo (0.01-10.0 ng/ml) for 15 minutes prior to 25 minutes ischemia and 180 minutes reperfusion. For mechanism studies with potassium channel blockers, hearts were perfused with drugs for 15 minutes alone followed by 15 minutes in combination with Tpo prior to ischemia. Hearts perfused with potassium channel blockers alone in the absence of Tpo for 30 minutes prior to ischemia served as untreated controls for these studies. Recovery of post-ischemic left ventricular developed pressure was expressed as a percentage of its pre-drug, pre-ischemic value.
Assessment of ventricular function. Left ventricular function was monitored continuously throughout each experiment as described in Baker, et al., supra, 2000. Recovery of left ventricular pressure following ischemia was used to assess resistance to ischemia.
Measurement of infarct size/area at risk at 3 hours reperfusion were used to assess resistance to myocardial ischemia. For characterization of infarction size, hearts were perfused with 10 ml bicarbonate buffer containing triphenyltetrazolium chloride (SIGMA) at 37° C.
The heart was sectioned in 2 mm segments from apex to atrio-ventricular groove in a transverse fashion. Each segment was recorded and placed in formalin. After twenty-four (24) hours, the specimen was digitally photographed in a camera mount to normalize specimen-to-lens distance. Each photograph was then appended to Adobe Photoshop (Adobe™) to measure pixel density of infarcted versus non-infarcted areas. The percentage of infarction of each slide was expressed as a percentage of the entire area of the heart.
Hearts from male Sprague Dawley rats at 8 weeks of age were isolated and perfused with Tpo at 0.01, 0.1, 1.0, and 10 ng/ml for 15 minutes prior to 25 minutes global ischemia and 180 minutes reperfusion (FIG. 2). Tpo (1.0 ng/ml) reduced coronary flow rate prior to ischemia from 6±1 ml/min/g to 5±1 ml/min/g, increased left ventricular developed pressure from 119±15 mmHg to 151±19 mmHg and decreased heart rate from 240±34 beats/minute to 228±17 beats/minute. […]

SMILES | Effect on the cardioprotective effect of Tpo (infarct size, LVDP recovery) | Effect on the cardioprotective effect of Tpo (infarct size, LVDP recovery) (listed as glibenclamide) | Effect on cardioprotection, drug alone (Glibenclamide 3 μM alone) | Effect on cardioprotection, drug alone (Wortmannin 100 nM alone)
COc1ccc(Cl)cc1C(=O)NCCc1ccc(S(=O)(=O)NC(=O)NC2CCCCC2)cc1 [Glibenclamide, reference compound] | completely abolished | completely prevented | no effect | –
COC[C@H]1OC(=O)c2coc3c2[C@@]1(C)C1=C(C3=O)[C@@H]2CCC(=O)[C@@]2(C)C[C@H]1OC(C)=O [Wortmannin, reference compound] | – | – | – | no effect
